{
  "source": "patent US20250241879A1",
  "about": "“CAPSAICIN SEQUENTIAL DOSING METHOD FOR TREATMENT OF KNEE JOINT PAIN” (priority 2018, published 2025)",
  "tested_on": "human patients with bilateral knee osteoarthritis",
  "experiment": "Procedure pain (NPRS) due to intraarticular trans-capsaicin, Breg pad vs ice pack cooling (Example 7)",
  "format": "in vivo",
  "conditions": "1 mg intraarticular",
  "method": "Human patients experiencing osteoarthritic knee joint pain were subjected to two different protocols for intraarticular administration of trans-capsaicin. Temporary pain expected due to administration of capsaicin was analyzed, along with the intraarticular temperature of the knee joint and the temperature of the patient's skin in the area to be cooled.\n(§1) One of the protocols utilized a Breg Knee WrapOn Polar Pad (as illustrated in FIG. 1) that utilizes circulating ice-water to achieve cooling, where the pad is placed on skin surrounding the knee in order to cool the knee joint. The other protocol utilized ice-pack cooling, in which the patient's knee was wrapped with a stockinette and then the ice pack was positioned on top of the stockinette so that the ice pack is positioned over the patient's patella to thereby cool the knee joint. The ice pack was a LEADSTAR pain relief reusable cold therapy ice pack (size=6 inches). A temperature probe was placed into the intraarticular space of the patient's knee joint to measure intraarticular temperature of the knee joint. A temperature probe was also placed on the skin in the area to be cooled in order to measure skin temperature in the area to be cooled.\nFive human patients suffering from moderate to severe painful bilateral knee osteoarthritis were recruited for this study evaluating the impact that cooling protocol has on the magnitude of temporary pain experienced by the patient due to administration of capsaicin. […] Patients that participated in the study passed the following screening criteria and meet the patient inclusion and exclusion criteria are set forth below. As part of patient screening, patients received an intradermal injection of 100 μL (100 μg) capsaicin into the non-dominant volar forearm. To be eligible to enter the study, patients were able to tolerate the capsaicin injection. Screening patients rated the pain from capsaicin injection at 5, 10, 20, and 30 minutes after injection using a 0-10 Numerical Pain Rating Scale, where “0” equals no pain and “10” equals worst possible pain.\nas §1, with “ice pack (having a surface for application to the patient, wherein said surface has a diameter of approximately six inches) is positioned” for “ice pack is positioned”, “knee joint. A temperature” for “knee joint. The ice pack was a LEADSTAR pain relief reusable cold therapy ice pack (size=6 inches). A temperature”, “knee joint. At the discretion of the physician performing the procedure, in order to reduce discomfort for the patient, the protocol authorized the physician to instill a volume of 1-2 cc of 2% w/w lidocaine (without epinephrine) into the skin and subcutaneous tissue of the knee at the site of intra-articular probe insertion. A temperature” for “knee joint. A temperature”\nOne the first day of the study, patients were randomized so that (i) three patients receiving cooling of the knee joint using the Breg Knee WrapOn Polar Pad and (ii) two patients will receive ice-pack cooling over the patella as set forth above. Patients were subjected to the following procedure: • Placement of intraarticular temperature probe and skin temperature probe. […]",
  "data": [
    {"molecule": "COc1cc(CNC(=O)CCCCC=CC(C)C)ccc1O", "note": "[trans-capsaicin, N-[(4-hydroxy-3-methoxyphenyl)methyl]-8-methylnon-6-enamide]", "values": [
      {"measurement": "Knee Pain (NPRS)", "setting": "Ice Pack cooling, 20 min, all five patients (Example 7)", "value": "0.4 (+/−0.5)"},
      {"measurement": "Knee Pain (NPRS)", "setting": "Ice Pack cooling, 20 min, four patients (Example 7)", "value": "0.5 (+/−0.6)"},
      {"measurement": "Knee Pain (NPRS)", "setting": "Ice Pack cooling, 30 min, all five patients (Example 7)", "value": "0.3 (+/−0.5)"},
      {"measurement": "Knee Pain (NPRS)", "setting": "Ice Pack cooling, 30 min, four patients (Example 7)", "value": "0.3 (+/−0.6)"},
      {"measurement": "Knee Pain (NPRS)", "setting": "Ice Pack cooling, 40 min, all five patients (Example 7)", "value": 0.0},
      {"measurement": "Knee Pain (NPRS)", "setting": "Ice Pack cooling, 40 min, four patients (Example 7)", "value": 0.0},
      {"measurement": "Knee Pain (NPRS)", "setting": "Ice Pack cooling, 50 min, all five patients (Example 7)", "value": "0.3 (+/−0.5)"},
      {"measurement": "Knee Pain (NPRS)", "setting": "Ice Pack cooling, 50 min, four patients (Example 7)", "value": "0.3 (+/−0.5)"},
      {"measurement": "Knee Pain (NPRS)", "setting": "Ice Pack cooling, 70 min, all five patients (Example 7)", "value": "7.3 (+/−1.9)"},
      {"measurement": "Knee Pain (NPRS)", "setting": "Ice Pack cooling, 70 min, four patients (Example 7)", "value": "7.3 (+/−1.9)"},
      {"measurement": "Knee Pain (NPRS)", "setting": "Ice Pack cooling, 80 min, all five patients (Example 7)", "value": "5.4 (+/−3.7)"},
      {"measurement": "Knee Pain (NPRS)", "setting": "Ice Pack cooling, 80 min, four patients (Example 7)", "value": "6.8 (+/−2.5)"},
      {"measurement": "Knee Pain (NPRS)", "setting": "Ice Pack cooling, 90 min, all five patients (Example 7)", "value": "4.0 (+/−1.6)"},
      {"measurement": "Knee Pain (NPRS)", "setting": "Ice Pack cooling, 90 min, four patients (Example 7)", "value": "4.3 (+/−1.7)"},
      {"measurement": "Knee Pain (NPRS)", "setting": "Ice Pack cooling, 100 min, all five patients (Example 7)", "value": "3.2 (+/−1.6)"},
      {"measurement": "Knee Pain (NPRS)", "setting": "Ice Pack cooling, 100 min, four patients (Example 7)", "value": "3.5 (+/−1.7)"},
      {"measurement": "Knee Pain (NPRS)", "setting": "Ice Pack cooling, 110 min, all five patients (Example 7)", "value": "2.4 (+/−2.1)"},
      {"measurement": "Knee Pain (NPRS)", "setting": "Ice Pack cooling, 110 min, four patients (Example 7)", "value": "2.8 (+/−2.2)"},
      {"measurement": "Knee Pain (NPRS)", "setting": "Ice Pack cooling, 120 min, all five patients (Example 7)", "value": "1.8 (+/−1.3)"},
      {"measurement": "Knee Pain (NPRS)", "setting": "Ice Pack cooling, 120 min, four patients (Example 7)", "value": "2.0 (+/−1.4)"},
      {"measurement": "Knee Pain (NPRS)", "setting": "Ice Pack cooling, 130 min, all five patients (Example 7)", "value": "2.0 (+/−1.0)"},
      {"measurement": "Knee Pain (NPRS)", "setting": "Ice Pack cooling, 130 min, four patients (Example 7)", "value": "2.3 (+/−1.0)"},
      {"measurement": "Knee Pain (NPRS)", "setting": "Ice Pack cooling, 140 min, all five patients (Example 7)", "value": "1.8 (+/−1.1)"},
      {"measurement": "Knee Pain (NPRS)", "setting": "Ice Pack cooling, 140 min, four patients (Example 7)", "value": "1.8 (+/−1.3)"},
      {"measurement": "Knee Pain (NPRS)", "setting": "Ice Pack cooling, 150 min, all five patients (Example 7)", "value": "1.4 (+/−0.9)"},
      {"measurement": "Knee Pain (NPRS)", "setting": "Ice Pack cooling, 150 min, four patients (Example 7)", "value": "1.3 (+/−1.0)"},
      {"measurement": "Knee Pain (NPRS)", "setting": "Ice Pack cooling, 160 min, all five patients (Example 7)", "value": "1.0 (+/−1.4)"},
      {"measurement": "Knee Pain (NPRS)", "setting": "Ice Pack cooling, 160 min, four patients (Example 7)", "value": 2.0},
      {"measurement": "Knee Pain (NPRS)", "setting": "Ice Pack cooling, 170 min, all five patients (Example 7)", "value": "0.5 (+/−0.7)"},
      {"measurement": "Knee Pain (NPRS)", "setting": "Ice Pack cooling, 170 min, four patients (Example 7)", "value": 1.0},
      {"measurement": "Knee Pain (NPRS)", "setting": "Ice Pack cooling, 180 min, all five patients (Example 7)", "value": 7.0},
      {"measurement": "Knee Pain (NPRS)", "setting": "Ice Pack cooling, 180 min, four patients (Example 7)", "value": 7.0},
      {"measurement": "Knee Pain (NPRS)", "setting": "Ice Pack cooling, 190 min, all five patients (Example 7)", "value": 2.0},
      {"measurement": "Knee Pain (NPRS)", "setting": "Ice Pack cooling, 190 min, four patients (Example 7)", "value": 2.0},
      {"measurement": "Knee Pain (NPRS)", "setting": "Ice Pack cooling, Baseline, all five patients (Example 7)", "value": "1.0 (+/−2.2)"},
      {"measurement": "Knee Pain (NPRS)", "setting": "Ice Pack cooling, Baseline, four patients (Example 7)", "value": "1.3 (+/−2.5)"},
      {"measurement": "Knee Pain (NPRS)", "setting": "Standard Cooling Device (Breg pad), 20 min, all five patients (Example 7)", "value": "1.0 (+/−1.7)"},
      {"measurement": "Knee Pain (NPRS)", "setting": "Standard Cooling Device (Breg pad), 20 min, four patients (Example 7)", "value": "1.3 (+/−1.9)"},
      {"measurement": "Knee Pain (NPRS)", "setting": "Standard Cooling Device (Breg pad), 30 min, all five patients (Example 7)", "value": "1.2 (+/−1.1)"},
      {"measurement": "Knee Pain (NPRS)", "setting": "Standard Cooling Device (Breg pad), 30 min, four patients (Example 7)", "value": "1.3 (+/−1.3)"},
      {"measurement": "Knee Pain (NPRS)", "setting": "Standard Cooling Device (Breg pad), 50 min, all five patients (Example 7)", "value": "0.8 (+/−0.8)"},
      {"measurement": "Knee Pain (NPRS)", "setting": "Standard Cooling Device (Breg pad), 50 min, four patients (Example 7)", "value": "1.0 (+/−0.8)"},
      {"measurement": "Knee Pain (NPRS)", "setting": "Standard Cooling Device (Breg pad), 70 min, all five patients (Example 7)", "value": "5.0 (+/−2.9)"},
      {"measurement": "Knee Pain (NPRS)", "setting": "Standard Cooling Device (Breg pad), 70 min, four patients (Example 7)", "value": "4.0 (+/−2.2)"},
      {"measurement": "Knee Pain (NPRS)", "setting": "Standard Cooling Device (Breg pad), 80 min, all five patients (Example 7)", "value": "4.0 (+/−1.4)"},
      {"measurement": "Knee Pain (NPRS)", "setting": "Standard Cooling Device (Breg pad), 80 min, four patients (Example 7)", "value": "3.8 (+/−1.5)"},
      {"measurement": "Knee Pain (NPRS)", "setting": "Standard Cooling Device (Breg pad), 90 min, all five patients (Example 7)", "value": "2.8 (+/−1.6)"},
      {"measurement": "Knee Pain (NPRS)", "setting": "Standard Cooling Device (Breg pad), 90 min, four patients (Example 7)", "value": "2.5 (+/−1.7)"},
      {"measurement": "Knee Pain (NPRS)", "setting": "Standard Cooling Device (Breg pad), 100 min, all five patients (Example 7)", "value": "2.0 (+/−1.4)"},
      {"measurement": "Knee Pain (NPRS)", "setting": "Standard Cooling Device (Breg pad), 100 min, four patients (Example 7)", "value": "1.8 (+/−1.5)"},
      {"measurement": "Knee Pain (NPRS)", "setting": "Standard Cooling Device (Breg pad), 110 min, all five patients (Example 7)", "value": "1.2 (+/−0.8)"},
      {"measurement": "Knee Pain (NPRS)", "setting": "Standard Cooling Device (Breg pad), 110 min, four patients (Example 7)", "value": "1.3 (+/−1.0)"},
      {"measurement": "Knee Pain (NPRS)", "setting": "Standard Cooling Device (Breg pad), 120 min, all five patients (Example 7)", "value": "1.0 (+/−0.7)"},
      {"measurement": "Knee Pain (NPRS)", "setting": "Standard Cooling Device (Breg pad), 120 min, four patients (Example 7)", "value": "1.0 (+/−0.8)"},
      {"measurement": "Knee Pain (NPRS)", "setting": "Standard Cooling Device (Breg pad), 130 min, all five patients (Example 7)", "value": "0.6 (+/−0.5)"},
      {"measurement": "Knee Pain (NPRS)", "setting": "Standard Cooling Device (Breg pad), 130 min, four patients (Example 7)", "value": "0.8 (+/−0.5)"},
      {"measurement": "Knee Pain (NPRS)", "setting": "Standard Cooling Device (Breg pad), 140 min, all five patients (Example 7)", "value": "1.2 (+/−0.8)"},
      {"measurement": "Knee Pain (NPRS)", "setting": "Standard Cooling Device (Breg pad), 140 min, four patients (Example 7)", "value": "1.0 (+/−0.8)"},
      {"measurement": "Knee Pain (NPRS)", "setting": "Standard Cooling Device (Breg pad), 150 min, all five patients (Example 7)", "value": "1.2 (+/−1.1)"},
      {"measurement": "Knee Pain (NPRS)", "setting": "Standard Cooling Device (Breg pad), 150 min, four patients (Example 7)", "value": "1.3 (+/−1.3)"},
      {"measurement": "Knee Pain (NPRS)", "setting": "Standard Cooling Device (Breg pad), Baseline, all five patients (Example 7)", "value": "1.8 (+/−2.4)"},
      {"measurement": "Knee Pain (NPRS)", "setting": "Standard Cooling Device (Breg pad), Baseline, four patients (Example 7)", "value": "2.0 (+/−2.7)"}
    ]}
  ]
}
